# Assay results: patent publication US5972933A, “Method of treating microbial infections” (Ed. Geistlich Sohne AG Fur Chemische Industrie, priority 1998, dated 1999)
# Entries after “also recorded” stand apart in the source; their conditions may differ. Read-outs that look alike come from different tables or passages of the source.
# Tests used:
# Enterococcus faecalis = experiment: Taurolidine in vitro susceptibility, E. faecalis (Example 4); type: cell-based
# Source text: The in vitro susceptibility to taurolidine of a panel of clinical isolates and reference strains of Enterococcus faecium (n=20,7 strains vancomycin resistant) and Enterococcus faecalis (n-53,5 strains vancomycin resistant) has been examined. […] In all cases, the Minimum Bacteriocidal Concentration (MBC) of taurolidine was within 2 dilutions of the corresponding value for MIC confirming a bactericidal mode of action. In vitro resistance to taurolidine was not observed.
# TNF production = TNF production in human blood / antibiotic-treated cultures; type: cell-based
# Source text: Taurolidine and/or Taurultam prevent over-production of cytokines in the patient by monocytes of the blood.
# [1] = cited from earlier work
# [2] = test system: Methicillin-Resistant Staphylococcus aureus (MRSA); experiment: Taurolidine MIC by broth microdilution, methicillin-resistant S. aureus (EMRSA 15); type: cell-based; conditions: compared to NCTC 6571 or previous studies with fully sensitive strains
# Experimental: All test strains were clinical isolates recovered from patients attending Hammersmith Hospital, London. Strains of Staphylococcus aureus (epidemic methicillin-resistant strain 15 (EMRSA 15) and vancomycin-resistant Enterococcus faecalis were broadly unselected isolates from local culture collections. However, strain selection was conducted so as to ensure that isolates were not consecutive isolates from individual patients.
# Taurolidine MICs were performed using a sample of authenticated anhydrous micronised taurolidine batch number E/40522/4 (Geistlich Pharma AG, Wolhusen, Switzerland).
# An aqueous stock solution of taurolidine was prepared to contain 2 g/100 ml taurolidine in water. This preparation was solubilized and sterilized by heating to 121° C. (15 psi) for 15 minutes.
# Using this stock solution, serial doubling dilution of taurolidine were prepared in Unipath (Oxoid) Nutrient Broth Number 2 using 50 μl volumes in sterile round bottom microdilution trays. To these dilutions was added an equal volume of drug-free broth containing a suspension of the test organism to give a final inoculumn density of approximately 10^3 cfu. Inocula were prepared from overnight drug-free broth cultures of each test organism in Unipath (Oxoid) Nutrient Broth Number 2.
# Final test concentrations of taurolidine were as follows:
# All tests were incubated at 37 C for 18 hours. […]
# bacteria and fungi = experiment: Antimicrobial activity (general statements); type: cell-based
smiles,measurement,setting,value
O=S1(=O)CCN(CN2CCS(=O)(=O)NC2)CN1 [Taurolidine],MIC,"Enterococcus faecalis; E. faecalis strains, read-out: MIC range",125 to 500 µg/mL
same,MBC,"Enterococcus faecalis; E. faecalis, VAN R strains, read-out: MBC, Avg.",500 µg/mL
same,MBC,"Enterococcus faecalis; E. faecalis, VAN R strains, read-out: MBC, Max.",750 µg/mL
same,MBC,"Enterococcus faecalis; E. faecalis, VAN R strains, read-out: MBC, Mean",500 µg/mL
same,MBC,"Enterococcus faecalis; E. faecalis, VAN R strains, read-out: MBC, Median",500 µg/mL
same,MBC,"Enterococcus faecalis; E. faecalis, VAN R strains, read-out: MBC, Min.",500 µg/mL
same,MBC,"Enterococcus faecalis; E. faecalis, VAN R strains, read-out: MBC, Mode",500 µg/mL
same,MIC,"Enterococcus faecalis; E. faecalis, VAN R strains, read-out: MIC, Avg.",213 µg/mL
same,MIC,"Enterococcus faecalis; E. faecalis, VAN R strains, read-out: MIC, Max.",375 µg/mL
same,MIC,"Enterococcus faecalis; E. faecalis, VAN R strains, read-out: MIC, Mean",213 µg/mL
same,MIC,"Enterococcus faecalis; E. faecalis, VAN R strains, read-out: MIC, Median",250 µg/mL
same,MIC,"Enterococcus faecalis; E. faecalis, VAN R strains, read-out: MIC, Min.",125 µg/mL
same,MIC,"Enterococcus faecalis; E. faecalis, VAN R strains, read-out: MIC, Mode",250 µg/mL
same,MBC,"Enterococcus faecalis; E. faecalis, VAN S strains, read-out: MBC, Avg.",566 µg/mL
same,MBC,"Enterococcus faecalis; E. faecalis, VAN S strains, read-out: MBC, Max.",750 µg/mL
same,MBC,"Enterococcus faecalis; E. faecalis, VAN S strains, read-out: MBC, Mean",566 µg/mL
same,MBC,"Enterococcus faecalis; E. faecalis, VAN S strains, read-out: MBC, Median",500 µg/mL
same,MBC,"Enterococcus faecalis; E. faecalis, VAN S strains, read-out: MBC, Min.",375 µg/mL
same,MBC,"Enterococcus faecalis; E. faecalis, VAN S strains, read-out: MBC, Mode",500 µg/mL
same,MIC,"Enterococcus faecalis; E. faecalis, VAN S strains, read-out: MIC, Avg.",289 µg/mL
same,MIC,"Enterococcus faecalis; E. faecalis, VAN S strains, read-out: MIC, Max.",500 µg/mL
same,MIC,"Enterococcus faecalis; E. faecalis, VAN S strains, read-out: MIC, Mean",289 µg/mL
same,MIC,"Enterococcus faecalis; E. faecalis, VAN S strains, read-out: MIC, Median",250 µg/mL
same,MIC,"Enterococcus faecalis; E. faecalis, VAN S strains, read-out: MIC, Min.",190 µg/mL
same,MIC,"Enterococcus faecalis; E. faecalis, VAN S strains, read-out: MIC, Mode",250 µg/mL
same,MBC,"Enterococcus faecalis; E. faecalis, VAN S, Germany, read-out: MBC, (VAN S) model",750 µg/mL
same,MIC,"Enterococcus faecalis; E. faecalis, VAN S, Germany, read-out: MIC, (VAN S) model",375 µg/mL
same,MBC,"Enterococcus faecalis; E. faecalis, VAN S, Switzerland, read-out: MBC, (VAN S) model",500 µg/mL
same,MIC,"Enterococcus faecalis; E. faecalis, VAN S, Switzerland, read-out: MIC, (VAN S) model",375 µg/mL
same,MBC,"Enterococcus faecalis; E. faecalis, VAN S, UK, read-out: MBC, (VAN S) model",500 µg/mL
same,MIC,"Enterococcus faecalis; E. faecalis, VAN S, UK, read-out: MIC, (VAN S) model",250 µg/mL
same,MBC,"Enterococcus faecalis; E. faecalis, all strains, read-out: MBC, Avg.",606 µg/mL
same,MBC,"Enterococcus faecalis; E. faecalis, all strains, read-out: MBC, Max.",750 µg/mL
same,MBC,"Enterococcus faecalis; E. faecalis, all strains, read-out: MBC, Mean",606 µg/mL
same,MBC,"Enterococcus faecalis; E. faecalis, all strains, read-out: MBC, Median",500 µg/mL
same,MBC,"Enterococcus faecalis; E. faecalis, all strains, read-out: MBC, Min.",375 µg/mL
same,MBC,"Enterococcus faecalis; E. faecalis, all strains, read-out: MBC, Mode",500 µg/mL
same,MIC,"Enterococcus faecalis; E. faecalis, all strains, read-out: MIC, Avg.",310 µg/mL
same,MIC,"Enterococcus faecalis; E. faecalis, all strains, read-out: MIC, Max.",500 µg/mL
same,MIC,"Enterococcus faecalis; E. faecalis, all strains, read-out: MIC, Mean",310 µg/mL
same,MIC,"Enterococcus faecalis; E. faecalis, all strains, read-out: MIC, Median",375 µg/mL
same,MIC,"Enterococcus faecalis; E. faecalis, all strains, read-out: MIC, Min.",125 µg/mL
same,MIC,"Enterococcus faecalis; E. faecalis, all strains, read-out: MIC, Mode",375 µg/mL
same,TNF production,TNF production; added to antibiotic-treated cultures,prevents a rise in TNF production
same,neutralization of released endotoxins,TNF production; antibiotic-treated cultures,nearly complete neutralization of released endotoxins
same,half-life in vivo,[1],short half-life in vivo
same,difference in level of susceptibility to taurolidine,[2],no difference in level of susceptibility to taurolidine
same,rate of bacterial killing,bacteria and fungi,kills bacteria slowly
same,resistance development,bacteria and fungi,Resistance has not been observed either in vivo or in vitro; also recorded: no resistance development by microbes has been observed
